From US20250197799A1, “CELLS DERIVED FROM POLYPEDILUM VANDERPLANKI AND ODOR SENSOR EQUIPPED THEREWITH” (University of Maryland, College Park, priority 2022, published 2025)

Legend:
Orco and Or47a = target: T1, Orco and Or47a (Drosophila melanogaster, UniProt P81921+Q9VNB5); assay: Fluorescence on stimulation of Pv11 transient expression strain (GCaMP6f, Orco, Or47a); assay type: cell-based; conditions: fluorescence microscope, DMSO negative control
T1 construct: expressed in transfected cells; host or cells: Pv11 cells (Polypedilum vanderplanki)
T1 sequence (Q9VNB5 1-486): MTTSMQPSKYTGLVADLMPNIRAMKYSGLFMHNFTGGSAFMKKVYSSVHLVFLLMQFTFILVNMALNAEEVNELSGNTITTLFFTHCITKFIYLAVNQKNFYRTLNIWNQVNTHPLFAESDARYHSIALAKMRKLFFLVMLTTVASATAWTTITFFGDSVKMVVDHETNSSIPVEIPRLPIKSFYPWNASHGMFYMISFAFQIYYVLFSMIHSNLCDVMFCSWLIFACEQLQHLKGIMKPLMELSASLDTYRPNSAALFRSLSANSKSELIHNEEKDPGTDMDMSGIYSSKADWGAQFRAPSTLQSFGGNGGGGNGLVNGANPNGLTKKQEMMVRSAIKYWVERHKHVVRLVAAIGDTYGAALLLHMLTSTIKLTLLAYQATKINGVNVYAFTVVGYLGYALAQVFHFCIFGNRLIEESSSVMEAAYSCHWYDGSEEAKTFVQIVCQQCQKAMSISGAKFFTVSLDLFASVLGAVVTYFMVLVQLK
T1 sequence (P81921 1-385): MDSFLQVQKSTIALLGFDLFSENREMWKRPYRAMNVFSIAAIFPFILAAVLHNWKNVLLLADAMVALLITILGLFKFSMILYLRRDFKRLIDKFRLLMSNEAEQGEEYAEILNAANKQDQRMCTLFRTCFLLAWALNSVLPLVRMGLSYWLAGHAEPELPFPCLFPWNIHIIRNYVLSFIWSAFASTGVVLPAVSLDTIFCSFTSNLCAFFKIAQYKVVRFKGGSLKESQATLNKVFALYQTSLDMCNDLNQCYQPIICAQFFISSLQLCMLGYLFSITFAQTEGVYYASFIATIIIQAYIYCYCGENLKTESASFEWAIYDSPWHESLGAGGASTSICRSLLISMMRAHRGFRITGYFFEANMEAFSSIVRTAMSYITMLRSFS
Excerpt: 1. Transient expression strain preparation. GCaMP6f cDNA was amplified by PCR in a conventional manner, and a pPv121-GcaMP6f vector was produced by inserting the amplified DNA sequence (SEQ ID NO: 2) encoding GcaMP6f downstream of a 121 promoter of a pPv121-MCS vector (Tokumoto et. Al., doi: https://doi. Org/10.1101/2020.05.29.123570 “Development of a Tet-On inducible expression system for the anhydrobiotic cell line, Pv11”). Similarly, the cDNA of Orco derived from Drosophila melanogaster was amplified by PCR by a conventional method, and a pPv121-Orco vector was generated by inserting the amplified Orco-encoding DNA sequence (SEQ ID NO:3) downstream of the 121 promoter of the pPv121-MCS vector. […]
The resulting pPv121-GcaMP6f vector, pPv121-Orco vector, and pPv121-Or47a vector were simultaneously transfected to Pv11 cells (see Miyata Y., et. Al, Scientific Reports, 9 (1), 7004. (2019)), and a Pv11 transient expression strain was produced that transiently expressed the GaMP6f, Orco, and Or47a proteins. If the membrane proteins Orco and Or47a were expressed and GcaMP6f was expressed in the cytoplasm, then by stimulating Pv11 transient expression strains with Orco or Or47a agonists or ligands, calcium ion influxed into the cells, and the fluorescence of GcaMP6f was observed. […]

Orco-Or47a = target: T2, Orco-Or47a (Drosophila melanogaster, UniProt P81921+Q9VNB5); assay: Functional confirmation of exogenous membrane proteins in Orco-Or47a stable expression cell line; assay type: cell-based; parameters: remnant residues; expressed in transfected cells; conditions: VUAA1 final 100 μM; pentyl acetate final 1 mM; DMSO negative control
T2 sequence (Q9VNB5 1-486): T1 sequence (Q9VNB5 1-486)
T2 sequence (P81921 1-385): T1 sequence (P81921 1-385)
Description: 3.2 The functionality of GCaMP6f. The functionality of GCaMP6f in the resulting cell lines was evaluated using Ionomycin (Ionomycin; Fujifilm Wako Pure Chemical) to increase the intracellular concentration of calcium ions to provide functional confirmation of exogenous proteins in the GCaMP6f stable-expressing cell line. Ionomycin was dissolved in dimethyl sulfoxide (DMSO; Fujifilm Wako Pure Chemical Industries, Ltd.), adjusted to a final DMSO concentration of 1% and an ionomycin final concentration of 1 μM in IP1-41 medium, and added to the cell solution. As a negative control, DMSO was adjusted to a final concentration of 1% in IP 1-41 medium and added to the cell solution. Bright-field images and fluorescence images (ex: 470/40 nm; em: 525/50 nm) of the cells before and after solution addition were taken (all-in-one fluorescence microscope BZ-X710, Keyence). […] For statistical analysis of fluorescence intensity, one-way ANOVA was performed using Prism8 (GraphPad), followed by Tukey's multiple comparison test as a post-hoc test,
3.3 Functional confirmation of exogenous membrane proteins in cell lines with stable expression of Orco-Or47a. The amount of fluorescence expression was confirmed by the same operation as in 3.2 above. […] Fluorescence images were taken at an excitation wavelength/emission wavelength of 488 nm/525 nm. […]

Row | Structure (SMILES) | fluorescence of GCaMP6f on stimulation (Orco and Or47a) | fluorescence intensity (Orco-Or47a)
1 | CCc1ccc(NC(=O)CSc2nnc(-c3cccnc3)n2CC)cc1 [VUAA1, N-(4-ethylphenyl)-2-{[4-ethyl-5-(pyridin-3-yl)-4H-1,2,4-triazol-3-yl]sulfanyl}acetamide] | fluorescence was observed | increase in fluorescence intensity was observed
2 | CCCCCOC(C)=O [pentyl acetate] | fluorescence was observed | increase in fluorescence intensity was also observed
